Assay results from the kinase profiling compilation of Christmann-Franck et al. (2016).

What was measured:
Assay in all cases: radiometric filter-binding kinase assay, Kinaseprofiler
PIM2 (human) = PIM2 (human) (UniProt Q9P1W9); settings: compound 10.0 µM; ATP 15 µM
STK17A (human) = STK17A (human) (UniProt Q9UEE5); settings: compound 1.0 µM; ATP 10 µM
CAMK2B (human) = CAMK2B (human) (UniProt Q13554); settings: ATP 15 µM
ACVR1B (human) = ACVR1B (human) (UniProt P36896); settings: compound 10.0 µM; ATP 10 µM
BRSK1 (human) = BRSK1 (human) (UniProt Q8TDC3); settings: ATP 200 µM
BRSK1 (human), sequence (Q8TDC3 whole entry, looked up): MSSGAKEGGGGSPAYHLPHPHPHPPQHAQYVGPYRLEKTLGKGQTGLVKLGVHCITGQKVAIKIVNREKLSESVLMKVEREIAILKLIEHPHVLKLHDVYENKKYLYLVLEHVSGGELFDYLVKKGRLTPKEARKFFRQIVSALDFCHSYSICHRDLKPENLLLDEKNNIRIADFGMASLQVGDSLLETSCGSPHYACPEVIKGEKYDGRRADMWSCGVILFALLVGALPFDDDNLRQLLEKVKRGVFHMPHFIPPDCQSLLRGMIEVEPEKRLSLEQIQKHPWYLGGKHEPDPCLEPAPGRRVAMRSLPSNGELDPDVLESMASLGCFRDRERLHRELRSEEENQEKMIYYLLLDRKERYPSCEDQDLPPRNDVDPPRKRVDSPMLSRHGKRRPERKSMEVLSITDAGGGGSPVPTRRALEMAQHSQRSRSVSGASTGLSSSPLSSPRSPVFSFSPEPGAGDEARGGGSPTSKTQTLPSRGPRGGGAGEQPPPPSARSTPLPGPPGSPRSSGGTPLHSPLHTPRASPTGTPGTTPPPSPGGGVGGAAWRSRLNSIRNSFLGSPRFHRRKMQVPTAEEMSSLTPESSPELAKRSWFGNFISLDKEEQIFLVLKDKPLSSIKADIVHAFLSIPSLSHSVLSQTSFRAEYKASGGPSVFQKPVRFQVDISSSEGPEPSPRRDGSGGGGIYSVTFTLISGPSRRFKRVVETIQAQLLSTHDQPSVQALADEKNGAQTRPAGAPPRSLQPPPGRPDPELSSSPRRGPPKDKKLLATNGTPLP

PTK2B (human) = PTK2B (human) (UniProt Q14289); settings: compound 10.0 µM; ATP 90 µM
MAPK8 (human) = MAPK8 (human) (UniProt P45983); settings: ATP 45 µM
MAPK8 (human), sequence (P45983 whole entry, looked up): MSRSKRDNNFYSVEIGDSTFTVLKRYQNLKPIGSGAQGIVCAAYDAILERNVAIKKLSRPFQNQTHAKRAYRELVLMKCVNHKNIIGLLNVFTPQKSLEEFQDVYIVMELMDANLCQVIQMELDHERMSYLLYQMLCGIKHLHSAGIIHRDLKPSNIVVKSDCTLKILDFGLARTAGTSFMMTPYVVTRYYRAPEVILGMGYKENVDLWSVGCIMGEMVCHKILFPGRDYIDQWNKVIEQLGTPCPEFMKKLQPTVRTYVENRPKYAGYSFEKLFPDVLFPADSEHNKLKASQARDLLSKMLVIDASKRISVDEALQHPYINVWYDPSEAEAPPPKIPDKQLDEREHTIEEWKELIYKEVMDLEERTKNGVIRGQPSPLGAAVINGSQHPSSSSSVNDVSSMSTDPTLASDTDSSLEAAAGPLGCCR

TLK2 (human) = TLK2 (human) (UniProt Q86UE8); settings: compound 10.0 µM; ATP 10 µM
ULK3 (human) = ULK3 (human) (UniProt Q6PHR2); settings: compound 1.0 µM; ATP 10 µM
[1] = target: JAK3 JH1 catalytic (human) (UniProt P52333); settings: ATP 10 µM
[2] = test system: HIPK2 (human), Q9H2X6 [I471N]; settings: compound 10.0 µM; ATP 10 µM
FLT3 (human) = FLT3 (human) (UniProt P36888); settings: compound 1.0 µM; ATP 200 µM
CAMK2G (human) = CAMK2G (human) (UniProt Q13555); settings: compound 10.0 µM; ATP 10 µM
HIPK3 (human) = HIPK3 (human) (UniProt Q9H422); settings: compound 10.0 µM; ATP 15 µM
[3] = test system: BLK (human), P51451 [M278V]; settings: compound 10.0 µM; ATP 45 µM
TSSK2 (human) = TSSK2 (human) (UniProt Q96PF2); settings: compound 10.0 µM; ATP 15 µM
[4] = test system: FLT4 (human), P35916 [V1128L/H1146R]; settings: compound 1.0 µM; ATP 200 µM
KDR (human) = KDR (human) (UniProt P35968); settings: compound 10.0 µM; ATP 90 µM
CAMK2D (human) = CAMK2D (human) (UniProt Q13557); settings: compound 1.0 µM; ATP 10 µM
TNK2 (human) = TNK2 (human) (UniProt Q07912); settings: ATP 70 µM
TNK2 (human), sequence (Q07912 whole entry, looked up): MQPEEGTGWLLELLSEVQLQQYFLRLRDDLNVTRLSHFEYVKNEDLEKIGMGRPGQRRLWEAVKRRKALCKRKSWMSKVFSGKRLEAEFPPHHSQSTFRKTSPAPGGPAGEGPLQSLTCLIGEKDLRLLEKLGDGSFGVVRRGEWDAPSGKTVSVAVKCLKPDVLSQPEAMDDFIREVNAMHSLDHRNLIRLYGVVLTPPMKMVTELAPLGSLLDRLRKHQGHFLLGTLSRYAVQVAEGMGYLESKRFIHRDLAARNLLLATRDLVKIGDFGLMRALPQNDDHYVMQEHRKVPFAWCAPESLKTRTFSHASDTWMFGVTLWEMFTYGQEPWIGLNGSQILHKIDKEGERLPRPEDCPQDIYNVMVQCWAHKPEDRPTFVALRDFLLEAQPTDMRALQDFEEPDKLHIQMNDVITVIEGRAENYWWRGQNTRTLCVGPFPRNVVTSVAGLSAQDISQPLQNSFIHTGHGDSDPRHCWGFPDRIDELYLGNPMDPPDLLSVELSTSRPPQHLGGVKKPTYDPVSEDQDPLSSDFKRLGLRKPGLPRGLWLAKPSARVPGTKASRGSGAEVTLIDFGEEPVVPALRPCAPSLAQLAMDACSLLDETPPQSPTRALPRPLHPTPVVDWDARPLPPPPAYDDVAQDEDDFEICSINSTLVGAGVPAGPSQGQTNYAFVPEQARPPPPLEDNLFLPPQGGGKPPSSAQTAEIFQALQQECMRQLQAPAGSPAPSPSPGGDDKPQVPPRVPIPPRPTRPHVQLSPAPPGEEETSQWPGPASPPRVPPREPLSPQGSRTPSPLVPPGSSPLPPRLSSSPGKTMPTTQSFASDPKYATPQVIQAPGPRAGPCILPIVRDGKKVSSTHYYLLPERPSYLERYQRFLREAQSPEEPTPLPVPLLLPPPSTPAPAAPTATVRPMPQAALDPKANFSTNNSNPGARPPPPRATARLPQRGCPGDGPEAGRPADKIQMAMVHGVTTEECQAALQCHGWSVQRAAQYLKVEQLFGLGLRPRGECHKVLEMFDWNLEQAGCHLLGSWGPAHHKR

MINK1 (human) = MINK1 (human) (UniProt Q8N4C8); settings: compound 1.0 µM; ATP 185 µM
IRAK1 (human) = IRAK1 (human) (UniProt P51617); settings: compound 10.0 µM; ATP 45 µM
MAPK3 (human) = MAPK3 (human) (UniProt P27361); settings: compound 10.0 µM; ATP 70 µM
CAMK1D (human) = CAMK1D (human) (UniProt Q8IU85); settings: compound 10.0 µM; ATP 15 µM
RPS6KA2 KD1 KD2 (human) = RPS6KA2 KD1 KD2 (human) (UniProt Q15349); settings: compound 1.0 µM; ATP 10 µM
CDK3 CCNE1 (human) = CDK3 CCNE1 (human) (UniProt Q00526+P24864); settings: ATP 200 µM
CDK3 CCNE1 (human), sequence (P24864 whole entry, looked up): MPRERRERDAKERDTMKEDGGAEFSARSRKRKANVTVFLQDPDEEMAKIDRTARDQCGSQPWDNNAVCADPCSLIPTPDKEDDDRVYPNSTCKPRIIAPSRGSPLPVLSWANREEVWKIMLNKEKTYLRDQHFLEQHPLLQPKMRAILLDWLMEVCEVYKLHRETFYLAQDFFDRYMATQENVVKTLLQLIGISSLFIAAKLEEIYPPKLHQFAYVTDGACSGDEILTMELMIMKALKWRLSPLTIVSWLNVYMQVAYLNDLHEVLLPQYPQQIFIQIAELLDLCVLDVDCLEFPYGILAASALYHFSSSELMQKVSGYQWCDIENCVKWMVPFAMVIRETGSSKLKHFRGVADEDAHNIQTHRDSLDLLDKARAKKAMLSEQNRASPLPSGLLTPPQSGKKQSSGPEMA
CDK3 CCNE1 (human), sequence (Q00526 whole entry, looked up): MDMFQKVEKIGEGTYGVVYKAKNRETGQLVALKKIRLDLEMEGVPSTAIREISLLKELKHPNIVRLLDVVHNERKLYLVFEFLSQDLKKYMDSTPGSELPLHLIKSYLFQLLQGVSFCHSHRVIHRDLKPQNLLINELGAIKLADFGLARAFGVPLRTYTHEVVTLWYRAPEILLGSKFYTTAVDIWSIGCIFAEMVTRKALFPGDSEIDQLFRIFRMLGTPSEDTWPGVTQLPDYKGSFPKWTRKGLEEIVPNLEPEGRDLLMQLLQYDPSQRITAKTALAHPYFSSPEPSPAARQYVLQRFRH

[5] = target: JAK2 JH1 catalytic (human) (UniProt O60674); settings: compound 10.0 µM; ATP 45 µM
CDK2 CCNE1 (human) = CDK2 CCNE1 (human) (UniProt P24941+P24864); settings: ATP 120 µM
CDK2 CCNE1 (human), sequence (P24864 whole entry, looked up, other chains not shown): as the sequence (P24864 whole entry, looked up) above

DAPK2 (human) = DAPK2 (human) (UniProt Q9UIK4); settings: compound 10.0 µM; ATP 10 µM
PRKCA (human) = PRKCA (human) (UniProt P17252); settings: compound 10.0 µM; ATP 45 µM
LYN (human) = LYN (human) (UniProt P07948); settings: compound 10.0 µM; ATP 70 µM
MAP2K7 (human) = MAP2K7 (human) (UniProt O14733); settings: compound 10.0 µM; ATP 10 µM
CDK7 CCNH MNAT1 (human) = CDK7 CCNH MNAT1 (human) (UniProt P50613+P51948+P51946); settings: ATP 90 µM
CDK7 CCNH MNAT1 (human), sequence (P50613 whole entry, looked up): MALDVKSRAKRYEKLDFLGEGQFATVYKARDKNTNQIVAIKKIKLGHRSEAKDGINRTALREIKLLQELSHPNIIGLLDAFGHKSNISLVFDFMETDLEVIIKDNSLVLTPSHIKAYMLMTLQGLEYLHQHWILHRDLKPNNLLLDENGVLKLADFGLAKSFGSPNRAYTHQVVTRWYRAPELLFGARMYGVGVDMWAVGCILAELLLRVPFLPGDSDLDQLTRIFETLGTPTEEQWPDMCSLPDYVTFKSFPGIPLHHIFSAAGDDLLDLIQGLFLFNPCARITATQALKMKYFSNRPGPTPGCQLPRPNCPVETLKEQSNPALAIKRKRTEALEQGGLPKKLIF
CDK7 CCNH MNAT1 (human), sequence (P51946 whole entry, looked up): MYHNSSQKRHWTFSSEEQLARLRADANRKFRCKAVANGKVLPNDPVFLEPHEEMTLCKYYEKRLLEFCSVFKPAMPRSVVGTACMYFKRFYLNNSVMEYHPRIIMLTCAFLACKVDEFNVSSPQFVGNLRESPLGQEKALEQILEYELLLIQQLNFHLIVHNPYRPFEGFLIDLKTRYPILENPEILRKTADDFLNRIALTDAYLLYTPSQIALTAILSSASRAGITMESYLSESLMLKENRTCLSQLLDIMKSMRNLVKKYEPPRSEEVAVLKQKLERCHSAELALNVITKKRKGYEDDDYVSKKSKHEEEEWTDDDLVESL
CDK7 CCNH MNAT1 (human), sequence (P51948 whole entry, looked up): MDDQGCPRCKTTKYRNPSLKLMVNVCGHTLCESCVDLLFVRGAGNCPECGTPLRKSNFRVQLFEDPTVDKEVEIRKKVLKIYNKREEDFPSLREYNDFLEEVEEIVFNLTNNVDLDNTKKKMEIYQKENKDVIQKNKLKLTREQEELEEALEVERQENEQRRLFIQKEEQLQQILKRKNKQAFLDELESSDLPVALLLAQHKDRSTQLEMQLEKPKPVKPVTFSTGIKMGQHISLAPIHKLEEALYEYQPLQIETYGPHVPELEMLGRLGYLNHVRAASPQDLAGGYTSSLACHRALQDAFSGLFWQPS

STK33 (human) = STK33 (human) (UniProt Q9BYT3); settings: compound 10.0 µM; ATP 155 µM
BTK (human) = BTK (human) (UniProt Q06187); settings: ATP 200 µM
TBK1 (human) = TBK1 (human) (UniProt Q9UHD2); settings: compound 1.0 µM; ATP 155 µM

Measured: residual activity

CAMK2B (human), sequence (Q13554 whole entry, looked up): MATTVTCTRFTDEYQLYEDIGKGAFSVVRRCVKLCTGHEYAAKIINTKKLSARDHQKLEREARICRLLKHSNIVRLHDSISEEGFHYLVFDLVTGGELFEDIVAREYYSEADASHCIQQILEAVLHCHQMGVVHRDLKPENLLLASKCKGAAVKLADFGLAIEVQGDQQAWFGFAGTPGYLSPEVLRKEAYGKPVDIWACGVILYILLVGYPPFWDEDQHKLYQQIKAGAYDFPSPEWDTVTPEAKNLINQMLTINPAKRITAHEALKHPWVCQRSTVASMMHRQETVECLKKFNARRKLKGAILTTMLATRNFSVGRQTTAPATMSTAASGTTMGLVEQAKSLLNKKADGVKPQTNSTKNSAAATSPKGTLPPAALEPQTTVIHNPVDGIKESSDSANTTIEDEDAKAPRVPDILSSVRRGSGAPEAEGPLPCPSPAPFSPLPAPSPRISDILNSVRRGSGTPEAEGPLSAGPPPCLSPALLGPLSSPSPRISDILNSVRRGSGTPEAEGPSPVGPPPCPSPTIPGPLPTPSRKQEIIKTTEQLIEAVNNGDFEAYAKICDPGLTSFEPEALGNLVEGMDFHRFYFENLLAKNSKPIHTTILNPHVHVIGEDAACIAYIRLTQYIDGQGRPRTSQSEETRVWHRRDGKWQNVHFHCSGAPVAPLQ
PIM2 (human), sequence (Q9P1W9 whole entry, looked up): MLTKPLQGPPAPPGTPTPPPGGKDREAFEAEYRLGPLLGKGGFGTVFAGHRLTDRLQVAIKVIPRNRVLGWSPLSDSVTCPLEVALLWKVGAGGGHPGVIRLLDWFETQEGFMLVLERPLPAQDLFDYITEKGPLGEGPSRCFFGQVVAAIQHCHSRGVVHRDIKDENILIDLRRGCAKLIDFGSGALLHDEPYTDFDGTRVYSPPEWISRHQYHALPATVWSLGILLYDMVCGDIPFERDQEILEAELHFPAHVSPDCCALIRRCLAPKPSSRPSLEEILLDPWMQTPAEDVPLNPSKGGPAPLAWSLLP

COC(=O)[C@]1(O)C[C@@H]2O[C@@]1(C)n1c3ccccc3c3c4c(c5c6ccccc6n2c5c31)C(=O)NC4
0%: STK17A (human) | CAMK2B (human); compound 1.0 µM | ACVR1B (human) | BRSK1 (human); compound 10.0 µM | TLK2 (human) | ULK3 (human) | [1]; compound 1.0 µM | [1]; compound 10.0 µM | FLT3 (human) | CAMK2G (human) | [3] | TSSK2 (human) | [4] | KDR (human) | CAMK2D (human) | TNK2 (human); compound 1.0 µM | TNK2 (human); compound 10.0 µM | MINK1 (human) | IRAK1 (human) | CAMK1D (human) | RPS6KA2 KD1 KD2 (human) | CDK2 CCNE1 (human); compound 10.0 µM | PRKCA (human) | LYN (human) | MAP2K7 (human) | STK33 (human)
27%: CDK3 CCNE1 (human); compound 1.0 µM
-4%: HIPK3 (human)
-12%: MAPK8 (human); compound 1.0 µM
-1%: CAMK2B (human); compound 10.0 µM | BRSK1 (human); compound 1.0 µM | PTK2B (human) | [2] | MAPK3 (human) | [5] | BTK (human); compound 1.0 µM | BTK (human); compound 10.0 µM | TBK1 (human)
2%: CDK3 CCNE1 (human); compound 10.0 µM
55%: CDK7 CCNH MNAT1 (human); compound 1.0 µM
6%: CDK2 CCNE1 (human); compound 1.0 µM
-3%: DAPK2 (human)
-20%: MAPK8 (human); compound 10.0 µM
16%: CDK7 CCNH MNAT1 (human); compound 10.0 µM
-2%: PIM2 (human)
